Patent US8916499B2, “Herbicidal compositions comprising 4-amino-3-chloro-5-fluoro-6-(4-chloro-2-fluoro-3-methoxyphenyl) pyridine-2-carboxylic acid or a derivative thereof and a protoporphyrinogen oxidase inhibitor” (Dow AgroSciences LLC, priority 2012, dated 2014)

How the values were obtained:
CYPIR = test: Postemergence foliar-applied weed control, direct seeded rice, greenhouse (Example I); type: in vivo, Cyperus iria L.
IPOHE [1] = test: as above; type: in vivo, Ipomoea hederacea Jacq.
ECHOR = test: In-water applied weed control, transplanted paddy rice, greenhouse (Example II); type: in vivo, Echinochloa oryzoides (Ard.) Fritsch; conditions: Bifenox (technical) 720 g ai/ha alone
SCPMA = test: as above; type: in vivo; conditions: Bifenox (Fox ®) 180 g ai/ha alone
PAPRH = test: Postemergence foliar herbicidal activity of mixtures in cereal crops, greenhouse (Example III); type: in vivo, Papaver rhoeas L.; conditions: foliar-applied
Description: Seeds of the desired test plant species were planted in Sun Gro MetroMix® 306 planting mixture, which typically has a pH of 6.0 to 6.8 and an organic matter content of about 30 percent, in plastic pots with a surface area of 103.2 square centimeters (cm^2). When required to ensure good germination and healthy plants, a fungicide treatment and/or other chemical or physical treatment was applied. The plants were grown for 7-36 days in a greenhouse with an approximate 14 hour photoperiod which was maintained at about 18° C. during the day and about 17° C. during the night. Nutrients and water were added on a regular basis and supplemental lighting was provided with overhead metal halide 1000-Watt lamps as necessary. The plants were employed for testing when they reached the second or third true leaf stage.
Treatments consisted of the benzyl ester of 4-amino-3-chloro-5-fluoro-6-(4-chloro-2-fluoro-3-methoxy-phenyl)pyridine-2-carboxylic acid (Compound A), formulated as an SC, a second cereal herbicide alone and then both in combination.
Other herbicidal components were applied on an active ingredient basis and included PSII-inhibiting herbicides.
Measured aliquots of benzyl ester of 4-amino-3-chloro-5-fluoro-6-(4-chloro-2-fluoro-3-methoxy-phenyl)pyridine-2-carboxylic acid (Compound A) were placed in 25 milliliter (mL) glass vials and diluted in a volume of 1.25% (v/v) Agri-Dex® crop oil concentrate to obtain stock solutions. Compound requirements are based upon a 12 mL application volume at a rate of 187 liters per hectare (L/ha). Spray solutions of the second cereal herbicide and experimental compound mixtures were prepared by adding the stock solutions to the appropriate amount of dilution solution to form 12 mL spray solution with active ingredients in two- and three-way combinations. Formulated compounds were applied to the plant material with an overhead Mandel track sprayer equipped with an 8002E nozzle calibrated to deliver 187 L/ha over an application area of 0.503 square meters (m^2) at a spray height of 18 inches (46 cm) above average plant canopy. Control plants were sprayed in the same manner with the solvent blank.
The treated plants and control plants were placed in a greenhouse as described above and watered by sub-irrigation to prevent wash-off of the test compounds. After 20-22 days, the condition of the test plants as compared with that of the control plants was determined visually and scored on a scale of 0 to 100 percent where 0 corresponds to no injury and 100 corresponds to complete kill.
(§1) Colby's equation was used to determine the herbicidal effects expected from the mixtures (Colby, S. R. 1967. Calculation of the synergistic and antagonistic response of herbicide combinations. Weeds 15:20-22.).
(§2) The following equation was used to calculate the expected activity of mixtures containing two active ingredients, A and B: Expected=A+B−(A×B/100)

IPOHE [2] = test: Pre-emergence soil-applied weed control, greenhouse (Example IV); type: in vivo, Ipomoea hederacea (L.) Jacq.
Text: (§3) Seeds or nutlets of the desired test plant species were planted in a soil matrix prepared by mixing a loam soil (32 percent silt, 23 percent clay, and 45 percent sand, with a pH of about 6.5 and an organic matter content of about 1.9 percent) and calcareous grit in an 80 to 20 ratio. The soil matrix was contained in plastic pots with a volume of 1 quart and a surface area of 83.6 square centimeters (cm^2).
(§4) Treatments consisted of the benzyl ester of 4-amino-3-chloro-5-fluoro-6-(4-chloro-2-fluoro-3-methoxy-phenyl)pyridine-2-carboxylic acid (compound A) formulated as an SC (suspension concentrate) and various herbicidal components alone and in combination. Forms of compound A were applied on an acid equivalent basis.
(§5) Other herbicidal components were applied on an acid equivalent or active ingredient basis and included the protoporphyrinogen oxidase (PPO)-inhibiting herbicides, flumioxazin formulated as Payload® and oxadiazon formulated as Ronstar® 50W.
(§6) Treatment requirements were calculated based upon the rates being tested, the concentration of active ingredient or acid equivalent in the formulation, and a 12 mL application volume at a rate of 187 L/ha.
(§7) For treatments comprised of formulated compounds, measured amounts of compounds were placed individually in 25 mL glass vials and diluted in a volume of 1.25% (v/v) Agri-Dex® crop oil concentrate (COC) to obtain 12× stock solutions. […] Application solutions were prepared by adding an appropriate amount of each stock solution (e.g., 1 mL) and diluted to the appropriate final concentrations with the addition of 10 mL of an aqueous mixture of 1.25% (v/v) COC so that the final spray solutions contained 1.25% (v/v) COC.
(§8) All stock solutions and applications solutions were visually inspected for compound compatibility prior to application. Spray solutions were applied to the soil with an overhead Mandel track sprayer equipped with a 8002E nozzles calibrated to deliver 187 L/ha over an application area of 0.503 m^2 at a spray height of 18 inches (46 cm) above average pot height. Control pots were sprayed in the same manner with the solvent blank.
(§9) The treated and control pots were placed in a greenhouse and top watered as needed. When required to ensure good germination and healthy plants, a fungicide treatment and/or other chemical or physical treatment was applied. The pots were maintained in a greenhouse with an approximate 14 hr photoperiod which was maintained at about 29° C. during the day and 26° C. during the night. Nutrients (Peters® Excel 15-5-15 5-Ca 2-Mg) were applied in the irrigation solution as needed and water was added on a regular basis. Supplemental lighting was provided with overhead metal halide 1000-Watt lamps as necessary. After approximately 4 weeks, the condition of the test plants as compared with that of the untreated plants was determined visually and scored on a scale of 0 to 100 percent where 0 corresponds to no injury or growth inhibition and 100 corresponds to complete kill.
as §1, §2

SETVI = test: as above; type: in vivo, Setaria viridis (L.) Beauv.; conditions: 105 g ai/ha alone
Text: as §3, §4, §5, §6
For treatments comprised of formulated compounds, measured amounts of compounds were placed individually in 25 mL glass vials and diluted in a volume of 1.25% (v/v) Agri-Dex® crop oil concentrate (COC) to obtain 12× stock solutions. […] Application solutions were prepared by adding an appropriate amount of each stock solution (e.g., 1 mL) and diluted to the appropriate final concentrations with the addition of 10 mL of an aqueous mixture of 1.25% (v/v) COC so that the final spray solutions contained 1.25% (v/v) COC. […]
The treated and control pots were placed in a greenhouse and top watered as needed. […] After approximately 4 weeks, the condition of the test plants as compared with that of the untreated plants was determined visually and scored on a scale of 0 to 100 percent where 0 corresponds to no injury or growth inhibition and 100 corresponds to complete kill. […]

XANST = test: as above; type: in vivo, Xanthium strumarium L.
Text: as §3, §4, §5, §6, §7, §8
as §9, with “Nutrients (Peters® Excel 15-5-15 5-Ca 2-Mg) were applied in the irrigation solution as needed and water was added on a regular basis. Supplemental lighting was provided with overhead metal halide 1000-Watt lamps as necessary.” left out, “kill. […]” for “kill.”

DIGSA = test: Postemergence foliar-applied weed control, direct seeded rice, greenhouse (Example I); type: in vivo, Digitaria sanguinalis (L.) Scop.
ECHCG [3] = test: as above; type: in vivo, Echinochloa crusgalli (L.) Beauv.; conditions: g ae/ha Compound A Acid+g ai/ha oxyfluorfen (SC): r13 4.38+0, r14 8.75+0, r15 17.5+0, r16 0+180, r17 4.38+180, r18 8.75+180, r19 17.5+180
ECHCO = test: as above; type: in vivo, Echinochloa colona (L.) Link; conditions: g ae/ha Compound A Acid+g ai/ha oxyfluorfen (SC): r24 4.38+0, r25 8.75+0, r26 0+90, r27 4.38+90, r28 8.75+90
CYPRO = test: In-water applied weed control, transplanted paddy rice, greenhouse (Example II); type: in vivo, Cyperus rotundus L.
SCPJU = test: as above; type: in vivo, Schoenoplectus juncoides (Roxb.) Palla
ECHCG [4] = test: as above; type: in vivo, Echinochloa crus-galli (L.) P. Beauv.; conditions: 56.25 g ai/ha alone
FIMMI = test: as above; type: in vivo, Fimbristylis miliacea (L.) Vahl

## COC(=O)c1cc(Oc2ccc(Cl)cc2Cl)ccc1[N+](=O)[O-] [Bifenox, methyl 5-(2,4-dichlorophenoxy)-2-nitrobenzoate]
CYPIR; g ae/ha Compound A Benzyl Ester+g ai/ha bifenox (Fox ®): r17 8+0, r18 0+180, r19 0+360, r20 0+720, r21 8+180, r22 8+360, r23 8+720
  Visual Weed Control (%) - 21 DAA CYPIR Obs: 0%
CYPIR; g ae/ha Compound A Benzyl Ester+g ai/ha bifenox (technical): r23 8+0, r24 16+0, r25 0+180, r26 0+720, r27 8+180, r28 16+180, r29 8+720, r30 16+720
  Visual Weed Control (%) - 22 DAA CYPIR Obs: 0%
IPOHE [1]; g ae/ha Compound A Benzyl Ester+g ai/ha bifenox (Fox ®): r11 16+0, r12 32+0, r13 0+180, r14 16+180, r15 32+180
  Visual Weed Control (%) - 21 DAA IPOHE Obs: 55%
ECHOR
  Visual Weed Control (%) - 21 DAA ECHOR Obs: 40%
SCPMA
  Visual Weed Control (%) - 21 DAA SCPMA Obs: 40%
PAPRH; 180 g ai/ha alone
  Visual Weed Control (%) - 21 DAA PAPRH Obs: 5%
PAPRH; 360 g ai/ha alone
  Visual Weed Control (%) - 21 DAA PAPRH Obs: 8%
PAPRH; 780 g ai/ha alone
  Visual Weed Control (%) - 21 DAA PAPRH Obs: 8%

## C#CCN1C(=O)COc2cc(F)c(N3C(=O)C4=C(CCCC4)C3=O)cc21 [Fumioxazin]
IPOHE [2]; 105 g ai/ha alone
  Visual Weed Control (%) - 28 DAA IPOHE Obs: 70%
IPOHE [2]; 210 g ai/ha alone
  Visual Weed Control (%) - 28 DAA IPOHE Obs: 70%
IPOHE [2]; 420 g ai/ha alone
  Visual Weed Control (%) - 28 DAA IPOHE Obs: 90%
SETVI
  Visual Weed Control (%) - 28 DAA SETVI Obs: 73%
XANST; 105 g ai/ha alone
  Visual Weed Control (%) - 29 DAA XANST Obs: 18%
XANST; 210 g ai/ha alone
  Visual Weed Control (%) - 29 DAA XANST Obs: 48%

## CCOc1cc(Oc2ccc(C(F)(F)F)cc2Cl)ccc1[N+](=O)[O-] [Oxyfluorfen, 2-chloro-1-(3-ethoxy-4-nitrophenoxy)-4-(trifluoromethyl)benzene, reference compound]
DIGSA; g ae/ha Compound A Benzyl Ester+g ai/ha oxyfluorfen (SC): r14 4.38+0, r15 8.75+0, r16 17.5+0, r17 0+180, r18 4.38+180, r19 8.75+180, r20 17.5+180
  Visual Weed Control (%) - 23 DAA DIGSA Obs: 60%
DIGSA; g ae/ha Compound A Benzyl Ester+g ai/ha oxyfluorfen (technical): r15 4.38+0, r16 8.75+0, r17 17.5+0, r18 0+180, r19 4.38+180, r20 8.75+180, r21 17.5+180
  Visual Weed Control (%) - 21 DAA DIGSA Obs: 50%
ECHCG [3]
  Visual Weed Control (%) - 23 DAA ECHCG Obs: 30%
ECHCO
  Visual Weed Control (%) - 23 DAA ECHCO Obs: 50%
IPOHE [1]; g ae/ha Compound A Benzyl Ester+g ai/ha oxyfluorfen (SC): r36 4.38+0, r37 8.75+0, r38 17.5+0, r39 0+90, r40 0+180, r41 4.38+90, r42 8.75+90, r43 17.5+90, r44 4.38+180, r45 8.75+180, r46 17.5+180
  Visual Weed Control (%) - 23 DAA IPOHE Obs: 85%
CYPRO; g ae/ha Compound A Acid+g ai/ha oxyfluorfen (SC): r28 16+0, r29 32+0, r30 64+0, r31 0+135, r32 0+270, r33 16+135, r34 32+135, r35 64+135, r36 16+270, r37 32+270, r38 64+270
  Visual Weed Control (%) - 21 DAA CYPRO Obs: 0%
CYPRO; g ae/ha Compound A Acid+g ai/ha oxyfluorfen (technical): r11 10.6+0, r12 21.2+0, r13 42.4+0, r14 0+180, r15 10.6+180, r16 21.2+180, r17 42.4+180
  Visual Weed Control (%) - 22 DAA CYPRO Obs: 50%
CYPRO; g ae/ha Compound A Benzyl Ester+g ai/ha oxyfluorfen (SC): r11 32+0, r12 0+135, r13 0+270, r14 32+135, r15 32+270
  Visual Weed Control (%) - 21 DAA CYPRO Obs: 0%
SCPJU; g ae/ha Compound A Acid+g ai/ha oxyfluorfen (technical): r19 8.75+0, r20 17.5+0, r21 35+0, r22 0+180, r23 0+360, r24 8.75+180, r25 17.5+180, r26 35+180, r27 8.75+360, r28 17.5+360, r29 35+360
  Visual Weed Control (%) - 22 DAA SCPJU Obs: 0%

## CC(C)=C1OC(=O)N(c2cc(OC3CCCC3)c(Cl)cc2F)C1=O [Pentoxazone, 3-[4-chloro-5-(cyclopentyloxy)-2-fluorophenyl]-5-(1-methylethylidene)-2,4-oxazolidinedione]
ECHCG [4]
  Visual Weed Control (%) - 21 DAA ECHCG Obs: 0%
CYPRO; 56.25 g ai/ha alone
  Visual Weed Control (%) - 21 DAA CYPRO Obs: 0%
CYPRO; 112.5 g ai/ha alone
  Visual Weed Control (%) - 21 DAA CYPRO Obs: 0%
SCPJU; 56.25 g ai/ha alone
  Visual Weed Control (%) - 21 DAA SCPJU Obs: 0%
SCPJU; 112.5 g ai/ha alone
  Visual Weed Control (%) - 21 DAA SCPJU Obs: 0%
FIMMI; 56.25 g ai/ha alone
  Visual Weed Control (%) - 21 DAA FIMMI Obs: 25%
FIMMI; 112.5 g ai/ha alone
  Visual Weed Control (%) - 21 DAA FIMMI Obs: 20%
